Legend:
[1] = system: Gαi protein; assay: TR-FRET (HTRF) binding test of GTP analog-donor / anti-Gαi antibody DSV36S-d2, HEK293 Delta Opioid membranes; conditions: HEK293 membranes expressing Delta Opioid GPCR and Gαi, 1 μg per well; analog 1 nM; absence vs presence of GTPγS 100 μM
Source text: (§1) • membrane preparations of cells expressing GPCRs and the G-alpha-i protein (Gαi) were purchased from Perkin Elmer or Euroscreen. The table below lists the cell backgrounds and references of the different samples used:
(§2) • the DSV36 antibody was generated by Cisbio Bioassays and is available rom Cisbio Bioassays on request (under the reference DSV36S). The antibody was labeled with the fluorescent probe d2 (red acceptor) compatible for TR-FRET detection. The DSV36S antibody binds at the switch II of the Gαi protein. • the GTP and GTPγS nucleotides were purchased from Sigma Aldrich (respective catalog references G8877 and G8634). • the 384-well, low volume, white plates with a white background were purchased from Greiner Bio One (catalog reference 784075). • the non-hydrolyzable/slowly hydrolyzable GTP analogs labeled with donor fluorophores of lanthanide complex type were synthesized at Cisbio Bioassays. Methods Preparation of the Reagents
Except for other specific mention, all the reagents were diluted in 50 mM Tris HCl pH 7.4, 10 mM MgCl2, 0.1% BSA, 10 mM NaCl, buffer. The membranes were prepared 4× to distribute 1 or 10 μg/well (amount specified in the key of each figure). The GTPγS nucleotide (non-specific signal condition) was prepared 6.67× to obtain a final concentration in the wells of 100 μM. The anti-Gαi antibody DSV36S-d2 used for the detection was prepared 4× to target the final concentration in the wells of 10 nM. […]
(§3) The non-specific signal (background fluorescence noise) was measured with wells containing an excess of GTPγS (10 or 100 μM).
(§4) The plates were incubated at 21° C. for 20 h and then the HTRF signal was measured on the PHERAstar reader (BMG Labtech) with the following configuration: • Module: HTRF (Excitation 337 nm, Emission 665 nm and 620 nm) • Excitation: laser, 40 flashes or lamp, 100 flashes • Reading window: delays: 60 μs-Integration: […] Signal Processing
(§5) From the raw signals at 665 nm and 620 nm, the HTRF Ratio was calculated according to the following formula: HTRF Ratio=[(Signal at 665 nm)/(Signal at 620 nm)]×10 000 Test Format […]

[2] = system: Gαi protein; assay: TR-FRET (HTRF) binding test of GTP analog-donor / anti-Gαi antibody DSV36S-d2, CHO-K1 Dopamine D2S membranes; conditions: CHO-K1 membranes expressing Dopamine D2S GPCR and Gαi, 10 μg per well; analog 6 nM; absence vs presence of GTPγS 100 μM
Source text: as §1
• the DSV36 antibody was generated by Cisbio Bioassays and is available rom Cisbio Bioassays on request (under the reference DSV36S). The antibody was labeled with the fluorescent probe d2 (red acceptor) compatible for TR-FRET detection. […]
as §3, §4, §5

[3] = system: Gαi protein; assay: TR-FRET (HTRF) binding test of GTP analog-donor / anti-Gαi antibody DSV36S-d2, CHO-K1 Delta Opioid membranes
Source text: as §1, §2
Except for other specific mention, all the reagents were diluted in 50 mM Tris HCl pH 7.4, 10 mM MgCl2, 0.1% BSA, 10 mM NaCl, buffer. The membranes were prepared 4× to distribute 1 or 10 μg/well (amount specified in the key of each figure). The GTPγS nucleotide (non-specific signal condition) was prepared 6.67× to obtain a final concentration in the wells of 100 μM. The anti-Gαi antibody DSV36S-d2 used for the detection was prepared 4× to target the final concentration in the wells of 10 nM. The non-hydrolyzable/slowly hydrolyzable GTP analogs labeled with fluorescent donor probes (lanthanide complexes) were prepared 4× to target the final concentrations in the wells mentioned in the keys of each figure.
• Membranes expressing GPCR and the G protein: 5 μl • GTPγS buffer or nucleotide (for the non-specific signal condition): 3 μl • Non-hydrolyzable/slowly hydrolyzable GTP analog-donor: 5 μl • Anti-Gαi antibody-acceptor (DSV36S-d2): 5 μl • Buffer: 2 μl
as §3, §4
From the raw signals at 665 nm and 620 nm, the HTRF Ratio was calculated according to the following formula: HTRF Ratio=[(Signal at 665 nm)/(Signal at 620 nm)]×10 000 Test Format
FIG. 2 illustrates the test format used to detect the binding of the compounds of formula (I) to the G protein. […] When the two FRET partners (test compound and anti-Gα protein antibody) bind to the same Gα protein, a FRET signal appears (left part of the figure: “Total Signal”) and is distinguished from the non-specific signal (background noise corresponding to the right part of the figure: “Non-Specific Signal”), which comprises a large excess of unlabeled GTPγS (displacement of the fluorescent GTP analog). […]
GTPgN-octyl-C2 was used at a final concentration of 6 nM in the wells. The membranes were incubated in the absence or in the presence of a large excess of GTPγS (100 μM). […]
GTPgN-octyl-C2 was used at a final concentration of 2 or 6 nM in the wells. The membranes were incubated in the absence or in the presence of a large excess of GTPγS (100 μM).

[4] = CHO-K1 membranes expressing Delta Opioid GPCR and Gαi, 10 μg per well, analog 6 nM, absence vs presence of GTPγS 100 μM

| HTRF Ratio total signal/non-specific signal [1] | Molecule | HTRF Ratio total signal/non-specific signal [3, 4] | other results |
| --- | --- | --- | --- |
| 1.4 | Nc1nc2c(ncn2[C@@H]2O[C@H](COP(=O)(O)OP(=O)(O)OP(=O)(O)NCCCCCCCCNc3nc(Cl)nc(Nc4ccc(-c5cc(-c6cccc(CN(CC(=O)O)CC(=O)O)n6)nc(-c6cccc(CN(CC(=O)O)CC(=O)O)n6)c5)cc4)n3)C(O)[C@@H]2O)c(=O)[nH]1 (some centres unmarked) [GTPgN-octyl-C3, GTP-gamma-N-octyl-C3] | – | – |
| 1.7 | Nc1nc2c(ncn2[C@@H]2O[C@H](COP(=O)(O)OP(=O)(O)OP(=O)(O)Nc3ccc(-c4cc(-c5cccc(CN(CC(=O)O)CC(=O)O)n5)nc(-c5cccc(CN(CC(=O)O)CC(=O)O)n5)c4)cc3)C(O)[C@@H]2O)c(=O)[nH]1 (some centres unmarked) [GTPgN—C3, GTP-gamma-N—C3] | – | – |
| – | GTP-gamma-N-octyl-C2 [GTPgN-octyl-C2] | 12.4 | HTRF Ratio total signal/non-specific signal [2]: 3.8; signal amplitude (S/N), effect of amount of membrane ([3]; CHO-K1 Delta Opioid membranes increased from 1 to 10 μg per well, FIG. 11A): increase in the signal amplitude (S/N) is observed; amplitude of the signal (S/N), effect of analog concentration ([3]; CHO-K1 Delta Opioid membranes, GTPgN-octyl-C2 increased from 2 to 6 nM, FIG. 11B): increase in the amplitude of the signal (S/N) is observed |
| – | GTP-gamma-N-octyl-C11 [GTPgN-octyl-C11] | 7.6 | – |
| – | GTP-gamma-N-octyl-thiosuccinimidyl-C2 [GTPgN-octyl-thiosuccinimidyl-C2] | – | HTRF Ratio total signal/non-specific signal ([3]; CHO-K1 Delta Opioid membranes 10 μg per well, analog 7.5 nM, buffer 60 mM MgCl2, 150 mM NaCl, presence vs absence of membrane preparation): 2.8 |
| – | GTP-gamma-N—C2 [GTPgN—C2] | 16.6 | – |
| – | GTP-gamma-O-hexyl-C2 [GTPgO-hexyl-C2] | 7.1 | – |

| Molecule | HTRF Ratio total signal/non-specific signal [1] | HTRF Ratio total signal/non-specific signal [3, 4] | other results |
| --- | --- | --- | --- |
| GTP-gamma-O-hexyl-C3 [GTPgO-hexyl-C3] | 1.3 | – | – |

Source: patent publication US12398158B2, “Fluorescent GTP analogues and use” (CISBIO BIOASSAYS, priority 2019, dated 2025)
